Earlier results on two molecules are cited in patent US11453692B2, “Non-caloric sweeteners and methods for synthesizing” (Conagen Inc., priority 2014, dated 2022).

The conditions of the series: sweetness relative to sucrose.

Take `C=C1C[C@@]23CCC4[C@](C)(C(=O)OC5OC(CO)C(O)C(O)C5O)CCC[C@@]4(C)[C@@H]2CC(OC2OC(CO)C(O)C(OC4OC(CO)C(O)C(O)C4O)C2OC2OC(C)C(O)C(O)C2O)C1C3` (some centres unmarked) [Rebaudioside C]: the “times sweeter than sucrose” value was 40-60 times.

Take Stevioside: the “times sweeter than sucrose” value is given as 100-150 times.
